In ChEMBL document CHEMBL1201862, “PubChem BioAssay data set” (2004):
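In this assay, cells in 96-well plates receive the compound at five concentrations for 48 hours. Endpoints are linearly interpolated between the surrounding concentrations. At the GI50, growth is halved.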 The source made the active and inactive calls. Cut-off read from the data, not from the text of the source: active = GI50 up to about 1.1 µM and inactive = higher.

Assays:
Experiment in all cases: inhibition of tumour cell growth, NCI panel, 48 h
LXFL 529 = test system: LXFL 529
Malme-3M = test system: Malme-3M
SNB-19 = test system: SNB-19
MOLT-4 = test system: MOLT-4
HL-60 = test system: HL-60
OVCAR-3 = test system: OVCAR-3
SK-OV-3 = test system: SK-OV-3
SNB-75 = test system: SNB-75
A498 = test system: A498
XF498 = test system: XF498
U-251 = test system: U-251
RXF 393 = test system: RXF 393
NCI-H460 = test system: NCI-H460
SK-MEL-5 = test system: SK-MEL-5
SNB-78 = test system: SNB-78
LOX IMVI = test system: LOX IMVI
HCC 2998 = test system: HCC 2998
OVCAR-8 = test system: OVCAR-8
UACC-62 = test system: UACC-62
CCRF-CEM = test system: CCRF-CEM
SK-MEL-2 = test system: SK-MEL-2
M14 = test system: M14
DMS-114 = test system: DMS-114
HT-29 = test system: HT-29
SF-539 = test system: SF-539
DMS-273 = test system: DMS-273
SK-MEL-28 = test system: SK-MEL-28
NCI-H226 = test system: NCI-H226
SF-295 = test system: SF-295
HCT-116 = test system: HCT-116
HCT-15 = test system: HCT-15
UO-31 = test system: UO-31
TK-10 = test system: TK-10
SN12C = test system: SN12C
UACC-257 = test system: UACC-257
786-0 = test system: 786-0
KM12 = test system: KM12
HOP-18 = test system: HOP-18
K562 = test system: K562
A549 = test system: A549
ACHN = test system: ACHN
DLD-1 = test system: DLD-1
SF-268 = test system: SF-268
NCI-H522 = test system: NCI-H522
OVCAR-4 = test system: OVCAR-4
M19-MEL = test system: M19-MEL
IGROV-1 = test system: IGROV-1
NCI-H23 = test system: NCI-H23
EKVX = test system: EKVX
SR = test system: SR
SW-620 = test system: SW-620
OVCAR-5 = test system: OVCAR-5
COLO 205 = test system: COLO 205
HOP-62 = test system: HOP-62
KM-20L2 = test system: KM-20L2
CAKI-1 = test system: CAKI-1

SMILES: CC(Oc1ccc(OCC2CCCCC2)cc1)C(=O)OCC(=O)c1ccc(-c2ccccc2)cc1 (stereo not drawn)
- GI50 (LXFL 529): > 100 µM (inactive)
- GI50 (Malme-3M): > 100 µM (inactive)
- GI50 (SNB-19): > 100 µM (inactive)
- GI50 (MOLT-4): > 100 µM (inactive)
- GI50 (HL-60): > 100 µM (inactive)
- GI50 (OVCAR-3): > 100 µM (inactive)
- GI50 (SK-OV-3): > 100 µM (inactive)
- GI50 (SNB-75): > 100 µM (inactive)
- GI50 (A498): > 100 µM (inactive)
- GI50 (XF498): > 100 µM (inactive)
- GI50 (U-251): > 100 µM (inactive)
- GI50 (RXF 393): > 100 µM (inactive)
- GI50 (NCI-H460): > 100 µM (inactive)
- GI50 (SK-MEL-5): > 100 µM (inactive)
- GI50 (SNB-78): > 100 µM (inactive)
- GI50 (LOX IMVI): > 100 µM (inactive)
- GI50 (HCC 2998): > 100 µM (inactive)
- GI50 (OVCAR-8): > 100 µM (inactive)
- GI50 (UACC-62): > 100 µM (inactive)
- GI50 (CCRF-CEM): > 100 µM (inactive)
- GI50 (SK-MEL-2): > 100 µM (inactive)
- GI50 (M14): > 100 µM (inactive)
- GI50 (DMS-114): > 100 µM (inactive)
- GI50 (HT-29): > 100 µM (inactive)
- GI50 (SF-539): > 100 µM (inactive)
- GI50 (DMS-273): > 100 µM (inactive)
- GI50 (SK-MEL-28): > 100 µM (inactive)
- GI50 (NCI-H226): > 100 µM (inactive)
- GI50 (SF-295): > 100 µM (inactive)
- GI50 (HCT-116): > 100 µM (inactive)
- GI50 (HCT-15): > 100 µM
- GI50 (UO-31): > 100 µM (inactive)
- GI50 (TK-10): > 100 µM (inactive)
- GI50 (SN12C): > 100 µM (inactive)
- GI50 (UACC-257): > 100 µM (inactive)
- GI50 (786-0): > 100 µM (inactive)
- GI50 (KM12): > 100 µM (inactive)
- GI50 (HOP-18): 22.6 µM (inactive)
- GI50 (K562): > 100 µM (inactive)
- GI50 (A549): > 100 µM (inactive)
- GI50 (ACHN): > 100 µM (inactive)
- GI50 (DLD-1): > 100 µM (inactive)
- GI50 (SF-268): > 100 µM (inactive)
- GI50 (NCI-H522): > 100 µM (inactive)
- GI50 (OVCAR-4): > 100 µM (inactive)
- GI50 (M19-MEL): > 100 µM (inactive)
- GI50 (IGROV-1): > 100 µM (inactive)
- GI50 (NCI-H23): > 100 µM (inactive)

SMILES: C/C(=N/NC(=O)C[N+](C)(C)C)C(CN(C)C)C(=O)Nc1ccccc1 (stereo not drawn)
- GI50 (LXFL 529): > 100 µM (inactive)
- GI50 (Malme-3M): > 100 µM (inactive)
- GI50 (SNB-19): > 100 µM (inactive)
- GI50 (MOLT-4): > 100 µM (inactive)
- GI50 (HL-60): > 100 µM (inactive)
- GI50 (OVCAR-3): > 100 µM (inactive)
- GI50 (SK-OV-3): > 100 µM (inactive)
- GI50 (SNB-75): > 100 µM (inactive)
- GI50 (A498): > 100 µM (inactive)
- GI50 (XF498): > 100 µM (inactive)
- GI50 (U-251): > 100 µM (inactive)
- GI50 (RXF 393): > 100 µM (inactive)
- GI50 (NCI-H460): > 100 µM (inactive)
- GI50 (SK-MEL-5): > 100 µM (inactive)
- GI50 (LOX IMVI): > 100 µM (inactive)
- GI50 (HCC 2998): 96.8 µM (inactive)
- GI50 (OVCAR-8): > 100 µM (inactive)
- GI50 (UACC-62): > 100 µM (inactive)
- GI50 (CCRF-CEM): > 100 µM (inactive)
- GI50 (SK-MEL-2): > 100 µM (inactive)
- GI50 (M14): > 100 µM (inactive)
- GI50 (DMS-114): > 100 µM (inactive)
- GI50 (HT-29): > 100 µM (inactive)
- GI50 (SF-539): > 100 µM (inactive)
- GI50 (DMS-273): > 100 µM (inactive)
- GI50 (SK-MEL-28): > 100 µM (inactive)
- GI50 (EKVX): > 100 µM (inactive)
- GI50 (SR): > 100 µM (inactive)
- GI50 (NCI-H226): > 100 µM (inactive)
- GI50 (SW-620): > 100 µM (inactive)
- GI50 (SF-295): > 100 µM (inactive)
- GI50 (OVCAR-5): > 100 µM (inactive)
- GI50 (HCT-116): > 100 µM (inactive)
- GI50 (HCT-15): > 100 µM
- GI50 (UO-31): > 100 µM (inactive)
- GI50 (TK-10): > 100 µM (inactive)
- GI50 (SN12C): > 100 µM (inactive)
- GI50 (UACC-257): > 100 µM (inactive)
- GI50 (786-0): > 100 µM (inactive)
- GI50 (KM12): > 100 µM (inactive)
- GI50 (COLO 205): > 100 µM (inactive)
- GI50 (HOP-18): > 100 µM (inactive)
- GI50 (K562): > 100 µM (inactive)
- GI50 (A549): > 100 µM (inactive)
- GI50 (ACHN): > 100 µM (inactive)
- GI50 (HOP-62): > 100 µM (inactive)
- GI50 (DLD-1): > 100 µM (inactive)
- GI50 (KM-20L2): > 100 µM (inactive)
- GI50 (SF-268): > 100 µM (inactive)
- GI50 (NCI-H522): > 100 µM (inactive)
- GI50 (CAKI-1): > 100 µM (inactive)
- GI50 (OVCAR-4): > 100 µM (inactive)
- GI50 (M19-MEL): > 100 µM (inactive)
- GI50 (IGROV-1): > 100 µM (inactive)
- GI50 (NCI-H23): > 100 µM (inactive)
